Source: patent US20040048814A1, “Sustained release composition contraining clarithromycin” (priority 2000, published 2004)
Like-named read-outs stand apart in the source and are kept apart here.

Assays:
[1] = In vitro dissolution test, paddle apparatus, pH 5.0 phosphate buffer; format: physicochemical; settings: pH 5.0, 100 rpm, 900 ml
Excerpt: The dissolution test is usually the most appropriate analytical tool to assess the quality of the oral formulations and especially of sustained release oral formulations.

[2] = cited from earlier work
[3] = cited from earlier work; remark: listed apart in the source

CC[C@H]1OC(=O)[C@H](C)[C@@H](O[C@H]2C[C@@](C)(OC)[C@@H](O)[C@H](C)O2)[C@H](C)[C@@H](O[C@@H]2O[C@H](C)C[C@H](N(C)C)[C@H]2O)[C@](C)(OC)C[C@@H](C)C(=O)[C@H](C)[C@@H](O)[C@]1(C)O [clarithromycin, Clarithromycin]
% of dissolved clarithromycin ([1]; after 5 minutes, amount of coating 12% of the weight of the core): about 40%
% of dissolved clarithromycin ([1]; after 5 minutes, amount of coating 14% of the weight of the core): about 20%
% of dissolved clarithromycin ([1]; after about 5 minutes, amount of coating 10% of the weight of the core): about 80%
increase of bioavailability by food intake (mean) ([2]; food intake immediately before administration): 25%
time to achieve peak blood concentrations ([2]; oral administration): about 2 hours
availability after an oral dose ([2]; oral dose of 250 mg): ~55%
water solubility ([3]; pH below 5): good and quite constant
solubility ([3]; pH greater than 5): decreases dramatically
solubility ([3]; pH=8): quasi nil
